These are literature values, as cited in patent publication US20140066504A1, “ANALOGS AND PRODRUGS OF BUMETANIDE; COMPOSITIONS AND METHODS OF USE” (priority 2012, published 2014).

The subject of data set [1] is audiogenic seizure-prone rats. The following applies: audiogenic seizure-prone animals.
The next data set deals with primate cortex. The note with it: relative to furosemide.
The target in another data set is T1, NKCC1 (Homo sapiens, UniProt P55011).
T1 sequence (P55011 1-1212): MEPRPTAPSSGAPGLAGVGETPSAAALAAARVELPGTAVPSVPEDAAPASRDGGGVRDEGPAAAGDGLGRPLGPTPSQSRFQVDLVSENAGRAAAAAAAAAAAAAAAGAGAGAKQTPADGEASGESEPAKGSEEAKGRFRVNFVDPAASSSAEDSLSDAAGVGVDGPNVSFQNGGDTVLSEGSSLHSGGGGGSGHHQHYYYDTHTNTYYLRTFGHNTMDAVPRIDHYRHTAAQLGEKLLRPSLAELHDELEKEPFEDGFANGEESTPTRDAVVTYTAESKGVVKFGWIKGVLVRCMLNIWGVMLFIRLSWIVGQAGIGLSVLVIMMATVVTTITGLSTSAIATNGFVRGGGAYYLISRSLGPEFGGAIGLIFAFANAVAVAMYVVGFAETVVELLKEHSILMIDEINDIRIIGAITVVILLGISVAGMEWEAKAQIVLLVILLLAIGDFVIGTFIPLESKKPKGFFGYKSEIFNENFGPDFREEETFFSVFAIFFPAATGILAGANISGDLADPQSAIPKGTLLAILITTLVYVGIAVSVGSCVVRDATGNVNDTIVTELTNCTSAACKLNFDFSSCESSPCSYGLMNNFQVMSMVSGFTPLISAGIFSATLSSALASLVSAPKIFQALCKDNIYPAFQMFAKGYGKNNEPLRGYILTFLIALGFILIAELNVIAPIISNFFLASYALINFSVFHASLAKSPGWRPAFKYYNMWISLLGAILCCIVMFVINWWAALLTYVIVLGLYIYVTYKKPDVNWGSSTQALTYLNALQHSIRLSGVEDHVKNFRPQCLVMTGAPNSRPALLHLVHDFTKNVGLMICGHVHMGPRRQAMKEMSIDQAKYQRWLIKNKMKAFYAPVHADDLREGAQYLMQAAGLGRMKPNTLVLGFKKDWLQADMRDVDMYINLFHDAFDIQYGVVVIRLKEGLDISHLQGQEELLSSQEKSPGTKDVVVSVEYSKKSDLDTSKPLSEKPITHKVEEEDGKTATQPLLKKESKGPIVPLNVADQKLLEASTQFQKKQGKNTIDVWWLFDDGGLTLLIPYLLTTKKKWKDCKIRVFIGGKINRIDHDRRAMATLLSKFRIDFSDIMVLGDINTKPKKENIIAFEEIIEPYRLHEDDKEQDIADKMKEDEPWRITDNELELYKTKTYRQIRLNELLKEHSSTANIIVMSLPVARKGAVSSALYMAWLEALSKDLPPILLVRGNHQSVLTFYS
The note with it: for affinity for NKCC1 over KCC2: selectivity.

The subject of the next data set is rat hippocampal slices. The note with it: afterdischarge, high-K+, zero-magnesium, 4-AP, bicuculline, zero-calcium models.
In another data set the test system is neocortex. The following applies: intravenously administered, human patients.
In data set [2] the test system is adults with refractory epilepsy.

As for `CCCCNc1cc(C(=O)O)cc(S(N)(=O)=O)c1Oc1ccccc1` [bumetanide], the “effect on conditioned anxiety” value with rat models of anxiety is reported as “significantly reduce conditioned anxiety”. Also, in the data set on rats, the “effect on kainic acid status” value was “more potent than furosemide”. Further, the “effect on sound-triggered seizures” value in data set [1] is “more potent than furosemide”. For the same compound, in the data set with primate cortex, the “blocking epileptiform activity (focal bicuculline or 4-AP) and stimulation-evoked afterdischarges” value is “more potent than furosemide”. Also, at NKCC1, the “NKCC1 antagonist potency and specificity relative to furosemide” value was “more potent and specific antagonist than furosemide”; the “affinity for NKCC1 over KCC2” value was “significantly greater affinity for NKCC1 over KCC2”.
As for `NS(=O)(=O)c1cc(C(=O)O)c(NCc2ccco2)cc1Cl` [furosemide], the “effect on conditioned anxiety” value in the data set on rat models of anxiety is reported as “significantly reduce conditioned anxiety”. Moreover, the “effect on epileptiform activity” value in the data set with rat hippocampal slices is reported as “block epileptiform activity”. Further, the “effect on sound-triggered seizures” value in data set [1] was “prevented sound-triggered seizures”. Moreover, the “effect on interictal spiking and stimulation-evoked afterdischarges” value in the data set with neocortex was “blocked spontaneously occurring interictal spiking and stimulation-evoked afterdischarges”. The “effect on seizure frequency” value in data set [2] was “significantly reduced seizure frequency”. For the same compound, at NKCC1, the “affinity for NKCC1 over KCC2” value is recorded as “significantly greater affinity for NKCC1 over KCC2”. Further, the “effect on activity-driven glial cell swelling” value in the data set on glial cell is listed as “block activity-driven glial cell swelling”.
